{"source": "patent US20160289186A1", "about": "“FLUOROMETHYL-SUBSTITUTED PYRROLE CA[…]” (Grunenthal GmbH, priority 2013, published 2016)", "data": [{"biological_target": "T1, Human CaV2.2 channels (Homo sapiens, UniProt Q00975)", "T1 construct": "expressed in transfected cells; host or cells: HEK293", "T1 sequence (Q00975 whole entry)": "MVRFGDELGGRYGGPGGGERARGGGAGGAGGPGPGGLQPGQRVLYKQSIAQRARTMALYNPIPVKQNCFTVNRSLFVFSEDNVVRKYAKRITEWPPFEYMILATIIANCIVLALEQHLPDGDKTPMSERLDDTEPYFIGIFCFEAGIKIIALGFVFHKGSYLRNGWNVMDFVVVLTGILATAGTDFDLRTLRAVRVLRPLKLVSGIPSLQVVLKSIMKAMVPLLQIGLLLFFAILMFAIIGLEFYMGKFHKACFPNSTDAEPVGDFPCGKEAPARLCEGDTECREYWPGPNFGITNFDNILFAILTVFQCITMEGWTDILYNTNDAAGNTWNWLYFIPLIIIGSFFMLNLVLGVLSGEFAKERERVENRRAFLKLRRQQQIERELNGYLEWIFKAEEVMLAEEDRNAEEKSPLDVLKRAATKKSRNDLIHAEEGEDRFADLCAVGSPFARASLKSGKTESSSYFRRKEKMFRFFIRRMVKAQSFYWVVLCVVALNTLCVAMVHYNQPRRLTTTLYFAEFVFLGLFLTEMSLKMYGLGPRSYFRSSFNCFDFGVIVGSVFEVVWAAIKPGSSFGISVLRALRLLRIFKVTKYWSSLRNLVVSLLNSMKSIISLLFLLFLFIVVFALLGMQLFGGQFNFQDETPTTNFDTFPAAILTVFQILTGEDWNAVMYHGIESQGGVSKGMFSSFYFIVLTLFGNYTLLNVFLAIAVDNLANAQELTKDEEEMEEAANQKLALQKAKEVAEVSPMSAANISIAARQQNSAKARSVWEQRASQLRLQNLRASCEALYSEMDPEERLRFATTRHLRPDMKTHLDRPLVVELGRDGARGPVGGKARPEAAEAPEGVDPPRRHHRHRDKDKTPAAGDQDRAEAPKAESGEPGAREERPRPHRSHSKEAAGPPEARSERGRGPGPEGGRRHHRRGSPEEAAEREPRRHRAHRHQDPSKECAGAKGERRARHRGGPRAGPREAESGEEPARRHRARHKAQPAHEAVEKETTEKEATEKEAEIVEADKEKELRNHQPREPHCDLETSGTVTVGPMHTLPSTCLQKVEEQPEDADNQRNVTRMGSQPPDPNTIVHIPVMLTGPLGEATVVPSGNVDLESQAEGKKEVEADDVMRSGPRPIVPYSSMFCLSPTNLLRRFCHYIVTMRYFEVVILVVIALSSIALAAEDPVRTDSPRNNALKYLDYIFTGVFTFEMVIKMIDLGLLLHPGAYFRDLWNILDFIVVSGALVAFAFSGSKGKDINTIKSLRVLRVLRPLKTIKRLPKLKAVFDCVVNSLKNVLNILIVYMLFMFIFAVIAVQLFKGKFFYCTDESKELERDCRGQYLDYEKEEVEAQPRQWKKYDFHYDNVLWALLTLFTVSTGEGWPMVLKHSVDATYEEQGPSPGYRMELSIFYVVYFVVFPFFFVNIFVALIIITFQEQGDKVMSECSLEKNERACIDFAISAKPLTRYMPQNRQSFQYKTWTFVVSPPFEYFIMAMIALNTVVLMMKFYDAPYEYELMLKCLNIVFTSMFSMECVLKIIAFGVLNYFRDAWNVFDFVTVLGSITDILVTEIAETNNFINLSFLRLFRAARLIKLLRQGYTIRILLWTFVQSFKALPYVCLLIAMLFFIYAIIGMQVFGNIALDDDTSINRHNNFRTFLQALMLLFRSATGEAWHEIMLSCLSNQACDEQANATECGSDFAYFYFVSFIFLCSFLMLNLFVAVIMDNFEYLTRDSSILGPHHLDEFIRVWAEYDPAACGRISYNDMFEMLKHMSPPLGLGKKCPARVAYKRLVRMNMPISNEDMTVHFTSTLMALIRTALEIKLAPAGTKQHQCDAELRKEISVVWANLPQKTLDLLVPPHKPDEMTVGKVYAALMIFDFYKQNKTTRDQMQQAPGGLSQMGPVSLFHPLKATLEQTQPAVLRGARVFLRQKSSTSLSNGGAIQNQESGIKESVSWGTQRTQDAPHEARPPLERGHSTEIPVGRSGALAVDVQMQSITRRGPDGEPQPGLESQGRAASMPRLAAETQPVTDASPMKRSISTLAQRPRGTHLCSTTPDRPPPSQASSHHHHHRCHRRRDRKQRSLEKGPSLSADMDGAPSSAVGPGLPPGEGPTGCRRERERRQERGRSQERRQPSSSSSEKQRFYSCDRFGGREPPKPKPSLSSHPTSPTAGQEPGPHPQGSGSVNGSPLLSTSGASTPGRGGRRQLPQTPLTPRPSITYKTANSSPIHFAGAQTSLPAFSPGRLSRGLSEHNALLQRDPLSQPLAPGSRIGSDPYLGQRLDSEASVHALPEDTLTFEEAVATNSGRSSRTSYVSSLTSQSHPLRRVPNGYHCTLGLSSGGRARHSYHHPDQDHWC", "T1 sequence (P54284 whole entry, further chain)": "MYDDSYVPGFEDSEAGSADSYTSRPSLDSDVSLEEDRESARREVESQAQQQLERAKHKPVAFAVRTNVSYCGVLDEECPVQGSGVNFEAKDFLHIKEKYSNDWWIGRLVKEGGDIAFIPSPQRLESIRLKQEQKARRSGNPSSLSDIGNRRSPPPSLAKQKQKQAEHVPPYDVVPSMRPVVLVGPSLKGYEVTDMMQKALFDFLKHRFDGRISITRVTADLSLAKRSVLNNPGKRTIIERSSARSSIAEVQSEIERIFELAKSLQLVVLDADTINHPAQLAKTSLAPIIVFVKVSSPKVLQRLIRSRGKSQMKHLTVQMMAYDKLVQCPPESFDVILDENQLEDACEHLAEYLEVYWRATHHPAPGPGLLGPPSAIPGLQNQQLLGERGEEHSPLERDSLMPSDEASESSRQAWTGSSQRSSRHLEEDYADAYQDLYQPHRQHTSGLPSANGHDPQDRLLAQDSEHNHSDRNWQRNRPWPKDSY", "T1 sequence (P54289 25-1103, further chain)": "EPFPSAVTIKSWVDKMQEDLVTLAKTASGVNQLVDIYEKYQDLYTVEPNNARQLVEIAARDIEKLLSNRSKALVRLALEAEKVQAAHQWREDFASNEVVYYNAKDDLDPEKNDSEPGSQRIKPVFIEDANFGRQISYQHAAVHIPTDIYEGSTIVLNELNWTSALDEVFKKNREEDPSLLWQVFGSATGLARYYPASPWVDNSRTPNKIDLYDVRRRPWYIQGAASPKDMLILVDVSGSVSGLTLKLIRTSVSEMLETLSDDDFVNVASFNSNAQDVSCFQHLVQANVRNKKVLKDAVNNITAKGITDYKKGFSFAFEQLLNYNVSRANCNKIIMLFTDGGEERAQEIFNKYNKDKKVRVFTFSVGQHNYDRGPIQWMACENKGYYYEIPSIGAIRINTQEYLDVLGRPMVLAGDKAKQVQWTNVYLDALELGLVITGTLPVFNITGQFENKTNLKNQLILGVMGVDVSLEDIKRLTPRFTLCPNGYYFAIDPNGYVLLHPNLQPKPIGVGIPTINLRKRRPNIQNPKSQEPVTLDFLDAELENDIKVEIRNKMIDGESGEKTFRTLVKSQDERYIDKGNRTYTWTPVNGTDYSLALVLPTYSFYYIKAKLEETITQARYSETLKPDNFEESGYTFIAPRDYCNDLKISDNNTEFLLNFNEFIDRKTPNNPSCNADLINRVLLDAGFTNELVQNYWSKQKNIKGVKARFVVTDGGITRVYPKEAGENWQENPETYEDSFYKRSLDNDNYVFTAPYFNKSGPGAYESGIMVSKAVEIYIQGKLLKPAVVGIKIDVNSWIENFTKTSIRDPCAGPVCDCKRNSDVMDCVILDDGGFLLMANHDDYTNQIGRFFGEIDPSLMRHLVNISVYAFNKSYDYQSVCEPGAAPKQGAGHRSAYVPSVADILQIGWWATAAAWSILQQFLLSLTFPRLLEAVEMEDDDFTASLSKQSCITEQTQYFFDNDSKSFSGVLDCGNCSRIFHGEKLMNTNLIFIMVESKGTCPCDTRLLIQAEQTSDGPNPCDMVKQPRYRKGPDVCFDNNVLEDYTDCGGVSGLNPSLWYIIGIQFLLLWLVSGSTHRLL", "experiment": "Fluorescent (FLIPR) assay for CaV2.2 channels using potassium depolarization to induce channel opening", "type": "cell-based", "conditions": "3 μM compound; 30 mM KCl assay buffer (inactivated channel state); HEK293 cells stably expressing human CaV2.2; read-out: Activity Category: %-Inhib (CaV2.2) @3 μM @30 mM KCl", "in_short": "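HEK293 cells stably co-expressing human CaV2.2 with α2δ and β subunits plus Kir2.3, Fluo-4 loaded; compounds preincubated 15 min at 25 °C in 1 mM or 30 mM KCl buffer (inactivated state), pH 7.4. Depolarized by KCl addition; baseline-normalized peak fluorescence (ex 480/em 535 nm) gave inhibition.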", "units": {"inhibition at 3 µM": "%"}, "values": [{"compound": "CN(CC(C)(C)CO)C(=O)c1c(-c2ccc(F)cc2)cc(C(F)(F)F)n1CC1CCCO1", "note": "(stereo not shown) [Example 074, 3-(4-Fluorophenyl)-N-(3-hydroxy-2,2-dimethyl-propyl)-N-methyl-1-(tetrahydro-furan-2-yl-methyl)-5-(trifluoromethyl)-1H-pyrrole-2-carboxylic acid amide]", "inhibition at 3 µM": "75 to 95"}, {"compound": "Cc1c(-c2ccc(Cl)cn2)c(C(=O)N2CC[S+]([O-])C(C)(C)C2)n(C(C)C)c1C(F)(F)F", "note": "(stereo not shown) [Example 130, [3-(5-Chloro-pyridin-2-yl)-1-isopropyl-4-methyl-5-(trifluoromethyl)-1H-pyrrol-2-yl]-(2,2-dimethyl-1-oxo-[1,4]thiazinan-4-yl)-methanone]", "inhibition at 3 µM": "40 to 75"}, {"compound": "Cc1cc(CN(C)C(=O)c2c(-c3ccc(F)cc3)cc(C(F)(F)F)n2CC2CCCO2)no1", "note": "(stereo not shown) [Example 075, 3-(4-Fluorophenyl)-N-methyl-N-[(5-methyl-isoxazol-3-yl)-methyl]-1-(tetrahydro-furan-2-yl-methyl)-5-(trifluoromethyl)-1H-pyrrole-2-carboxylic acid amide]", "inhibition at 3 µM": "75 to 95"}, {"compound": "Cc1c(-c2ccc(Cl)cc2)c(C(=O)N(C)CCS(C)(=O)=O)n(CC2(C)CC2)c1C(F)(F)F", "note": "[Example 068, 3-(4-Chlorophenyl)-N,4-dimethyl-1-[(1-methyl-cyclopropyl)-methyl]-N-(2-methylsulfonyl-ethyl)-5-(trifluoromethyl)-1H-pyrrole-2-carboxylic acid amide]", "inhibition at 3 µM": "> 95"}, {"compound": "Cc1cnc(CN(C)C(=O)c2c(-c3ccc(F)cc3)cc(C(F)(F)F)n2CC2CCCO2)cn1", "note": "(stereo not shown) [Example 077, 3-(4-Fluorophenyl)-N-methyl-N-[(5-methyl-pyrazin-2-yl)-methyl]-1-(tetrahydro-furan-2-yl-methyl)-5-(trifluoromethyl)-1H-pyrrole-2-carboxylic acid amide]", "inhibition at 3 µM": "75 to 95"}, {"compound": "Cc1c(-c2ncc(Cl)cn2)c(C(=O)N(C)C(C)C)n(C(C)C)c1C(F)(F)F", "note": "[Example 128, 3-(5-Chloro-pyrimidin-2-yl)-N,1-diisopropyl-N,4-dimethyl-5-(trifluoromethyl)-1H-pyrrole-2-carboxylic acid amide]", "inhibition at 3 µM": "40 to 75"}, {"compound": "CC(C)Cn1c(C(F)(F)F)cc(-c2ccc(F)cc2)c1C(=O)N(C)CC(C)(C)C", "note": "[Example 053, N-(2,2-Dimethyl-propyl)-3-(4-fluorophenyl)-N-methyl-1-(2-methyl-propyl)-5-(trifluoromethyl)-1H-pyrrole-2-carboxylic acid amide]", "inhibition at 3 µM": "40 to 75"}, {"compound": "Cc1c(-c2ccc(Cl)cc2)c(C(=O)N(C)C(C)C(=O)NC(C)(C)C)n(C(C)C)c1C(F)(F)F", "note": "(stereo not shown) [Example 133, N-[1-(tert-Butyl-carbamoyl)-ethyl]-3-(4-chlorophenyl)-1-isopropyl-N,4-dimethyl-5-(trifluoromethyl)-1H-pyrrole-2-carboxylic acid amide]", "inhibition at 3 µM": "40 to 75"}, {"compound": "O=C(c1c(-c2ccc(Cl)cc2)cc(C(F)(F)F)n1C1CC1)N1CCOCC1", "note": "[Example 038, [3-(4-Chlorophenyl)-1-cyclopropyl-5-(trifluoromethyl)-1H-pyrrol-2-yl]-morpholin-4-yl-methanone]", "inhibition at 3 µM": "40 to 75"}, {"compound": "Cc1c(-c2ncc(Cl)cn2)c(C(=O)N(C)CCS(C)(=O)=O)n(C(C)C)c1C(F)(F)F", "note": "[Example 127, 3-(5-Chloro-pyrimidin-2-yl)-1-isopropyl-N,4-dimethyl-N-(2-methylsulfonyl-ethyl)-5-(trifluoromethyl)-1H-pyrrole-2-carboxylic acid amide]", "inhibition at 3 µM": "30 to 40"}, {"compound": "Cc1c(-c2ccc(Cl)cn2)c(C(=O)N(C)Cc2ccnn2C)n(C(C)C)c1C(F)(F)F", "note": "[Example 114, 3-(5-Chloro-pyridin-2-yl)-1-isopropyl-N,4-dimethyl-N-[(2-methyl-2H-pyrazol-3-yl)-methyl]-5-(trifluoromethyl)-1H-pyrrole-2-carboxylic acid amide]", "inhibition at 3 µM": "40 to 75"}, {"compound": "Cc1c(-c2ccc(Cl)cc2)c(C(=O)N(C)C2CC2)n(C2CC2)c1C(F)(F)F", "note": "[Example 012, 3-(4-Chlorophenyl)-N,1-dicyclopropyl-N,4-dimethyl-5-(trifluoromethyl)-1H-pyrrole-2-carboxylic acid amide]", "inhibition at 3 µM": "75 to 95"}, {"compound": "Cc1noc(C2CCN(C(=O)c3c(-c4ccc(Cl)cc4)c(C)c(C(F)(F)F)n3CC(C)C)CC2)n1", "note": "[Example 062, [3-(4-Chlorophenyl)-4-methyl-1-(2-methyl-propyl)-5-(trifluoromethyl)-1H-pyrrol-2-yl]-[4-(3-methyl-[1,2,4]oxadiazol-5-yl)-piperidin-1-yl]-methanone]", "inhibition at 3 µM": "75 to 95"}, {"compound": "CN(CCS(C)(=O)=O)C(=O)c1c(-c2ccc(F)cc2)cc(C(F)(F)F)n1CC1CCCO1", "note": "(stereo not shown) [Example 078, 3-(4-Fluorophenyl)-N-methyl-N-(2-methylsulfonyl-ethyl)-1-(tetrahydro-furan-2-yl-methyl)-5-(trifluoromethyl)-1H-pyrrole-2-carboxylic acid amide]", "inhibition at 3 µM": "40 to 75"}, {"compound": "COc1ccc(CN(C)C(=O)c2c(-c3ccc(Cl)cc3)cc(C(F)(F)F)n2C2CC2)cc1", "note": "[Example 011, 3-(4-Chlorophenyl)-1-cyclopropyl-N-[(4-methoxyphenyl)-methyl]-N-methyl-5-(trifluoromethyl)-1H-pyrrole-2-carboxylic acid amide]", "inhibition at 3 µM": "75 to 95"}, {"compound": "CC(C)Cn1c(C(F)(F)F)cc(-c2ccc(F)cc2)c1C(=O)N(C)CC1CCOC1", "note": "(stereo not shown) [Example 058, 3-(4-Fluorophenyl)-N-methyl-1-(2-methyl-propyl)-N-(tetrahydro-furan-3-yl-methyl)-5-(trifluoromethyl)-1H-pyrrole-2-carboxylic acid amide]", "inhibition at 3 µM": "> 95"}, {"compound": "CN(C(=O)c1c(-c2ccc(Cl)cc2)cc(C(F)(F)F)n1C1CC1)C1CCOCC1", "note": "[Example 015, 3-(4-Chlorophenyl)-1-cyclopropyl-N-methyl-N-tetrahydro-pyran-4-yl-5-(trifluoromethyl)-1H-pyrrole-2-carboxylic acid amide]", "inhibition at 3 µM": "75 to 95"}, {"compound": "Cc1c(-c2ccc(Cl)cc2)c(C(=O)N2CC(O)C2)n(C2CC2)c1C(F)(F)F", "note": "[Example 025, [3-(4-Chlorophenyl)-1-cyclopropyl-4-methyl-5-(trifluoromethyl)-1H-pyrrol-2-yl]-(3-hydroxy-azetidin-1-yl)-methanone]", "inhibition at 3 µM": "75 to 95"}, {"compound": "CN(CC1CCOC1)C(=O)c1c(-c2ccc(Cl)cc2)cc(C(F)(F)F)n1C1CC1", "note": "(stereo not shown) [Example 023, 3-(4-Chlorophenyl)-1-cyclopropyl-N-methyl-N-(tetrahydro-furan-3-yl-methyl)-5-(trifluoromethyl)-1H-pyrrole-2-carboxylic acid amide]", "inhibition at 3 µM": "75 to 95"}, {"compound": "Cc1c(-c2ccc(Cl)cc2)c(C(=O)N(C)CC2CCOC2)n(C2CC2)c1C(F)(F)F", "note": "(stereo not shown) [Example 022, 3-(4-Chlorophenyl)-1-cyclopropyl-N,4-dimethyl-N-(tetrahydro-furan-3-yl-methyl)-5-(trifluoromethyl)-1H-pyrrole-2-carboxylic acid amide]", "inhibition at 3 µM": "> 95"}, {"compound": "Cc1cnc(CN(C)C(=O)c2c(-c3ccc(F)cc3)cc(C(F)(F)F)n2CC(C)C)cn1", "note": "[Example 049, 3-(4-Fluorophenyl)-N-methyl-1-(2-methyl-propyl)-N-[(5-methyl-pyrazin-2-yl)-methyl]-5-(trifluoromethyl)-1H-pyrrole-2-carboxylic acid amide]", "inhibition at 3 µM": "> 95"}, {"compound": "Cc1c(-c2ccc(Cl)cc2)c(C(=O)N2CCS(=O)(=O)C(C)(C)C2)n(C2CC2)c1C(F)(F)F", "note": "[Example 044, [3-(4-Chlorophenyl)-1-cyclopropyl-4-methyl-5-(trifluoromethyl)-1H-pyrrol-2-yl]-(2,2-dimethyl-1,1-dioxo-[1,4]thiazinan-4-yl)-methanone]", "inhibition at 3 µM": "75 to 95"}, {"compound": "Cc1c(-c2ncc(Cl)cn2)c(C(=O)N(C)Cc2ccnn2C)n(C(C)C)c1C(F)(F)F", "note": "[Example 122, 3-(5-Chloro-pyrimidin-2-yl)-1-isopropyl-N,4-dimethyl-N-[(2-methyl-2H-pyrazol-3-yl)-methyl]-5-(trifluoromethyl)-1H-pyrrole-2-carboxylic acid amide]", "inhibition at 3 µM": "40 to 75"}, {"compound": "Cc1c(-c2ccc(Cl)cc2)c(C(=O)N(C)C2CCOCC2)n(C2CC2)c1C(F)(F)F", "note": "[Example 014, 3-(4-Chlorophenyl)-1-cyclopropyl-N,4-dimethyl-N-tetrahydro-pyran-4-yl-5-(trifluoromethyl)-1H-pyrrole-2-carboxylic acid amide]", "inhibition at 3 µM": "75 to 95"}, {"compound": "CC(C)Cn1c(C(F)(F)F)cc(-c2ccc(F)cc2)c1C(=O)N(C)CCS(C)(=O)=O", "note": "[Example 050, 3-(4-Fluorophenyl)-N-methyl-1-(2-methyl-propyl)-N-(2-methylsulfonyl-ethyl)-5-(trifluoromethyl)-1H-pyrrole-2-carboxylic acid amide]", "inhibition at 3 µM": "75 to 95"}, {"compound": "Cc1c(-c2ccc(Cl)cc2)c(C(=O)N2CCOC(C)(C)C2)n(C(C)C)c1C(F)(F)F", "note": "[Example 006, [3-(4-Chlorophenyl)-1-isopropyl-4-methyl-5-(trifluoromethyl)-1H-pyrrol-2-yl]-(2,2-dimethyl-morpholin-4-yl)-methanone]", "inhibition at 3 µM": "75 to 95"}, {"compound": "Cc1c(-c2ccc(Cl)cn2)c(C(=O)N(C)C2CCNCC2(C)C)n(C(C)C)c1C(F)(F)F", "note": "(stereo not shown) [Example 134, 3-(5-Chloro-pyridin-2-yl)-N-(3,3-dimethyl-piperidin-4-yl)-1-isopropyl-N,4-dimethyl-5-(trifluoromethyl)-1H-pyrrole-2-carboxylic acid amide]", "inhibition at 3 µM": "40 to 75"}, {"compound": "O=C1CN(C(=O)c2c(-c3ccc(F)cc3)cc(C(F)(F)F)n2CC2CCCO2)CCN1", "note": "(stereo not shown) [Example 079, 4-[3-(4-Fluorophenyl)-1-(tetrahydro-furan-2-yl-methyl)-5-(trifluoromethyl)-1H-pyrrole-2-carbonyl]-piperazin-2-one]", "inhibition at 3 µM": "40 to 75"}]}]}
